From PMC9019904, “AD Informer Set: Chemical tools to facilitate Alzheimer's disease drug discovery” (Alzheimer's & Dementia : Translational Research & Clinical …, 2022)

Tests used:
[1] = test system: HMC3 (human microglia) cell line; assay: pHrodo-myelin phagocytosis/cell viability high content imaging assay: viability (cell count, nuclear area, nuclear intensity); conditions: 48 hours treatment
Procedure, shortened: (§1)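 BV2 mouse and HMC3 human microglia were treated with compounds at 10 μM for 48 h, with pHrodo-myelin present for the last 20 h. Viability was imaged as total cell count per well and mean nuclear intensity per cell. Values are means of duplicates, normalized to untreated wells as % control.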

[2] = test system: BV2 (mouse microglia) cell line; assay: as above; conditions: 48 hours treatment
Procedure, shortened: as §1

[3] = test system: HMC3 (human microglia) cell line; assay: pHrodo-myelin phagocytosis/cell viability high content imaging assay: phagocytosis signal; assay type: cell-based
Procedure, shortened: (§2)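 Simultaneous phagocytosis/viability imaging at approximately 22 h after adding pHrodo-myelin. Rising intensity flagged early apoptosis and falling intensity later apoptosis.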

[4] = test system: BV2 (mouse microglia) cell line; assay: as above; assay type: cell-based
Procedure, shortened: as §2

[5] = HMC3 cells, 10 uM compound, 48 hours treatment, pHrodo-myelin final 20 hours
[6] = BV2 cells, 10 uM compound, 48 hours treatment, pHrodo-myelin final 20 hours
[7] = HMC3, compound 10 uM, pHrodo-myelin
[8] = BV2, compound 10 uM, pHrodo-myelin

Row | Compound | 1. Cell count (% control) ([1]; HMC3 cells, 10 uM compound) | 2. Nuclear Area (% Control) ([1]; HMC3 cells, 10 uM compound) | 3. Nuclear DNA Intensity (% control) ([1]; HMC3 cells, 10 uM compound) | 1. Cell count (% control) ([2]; BV2 cells, 10 uM compound) | 2. Nuclear Area (% Control) ([2]; BV2 cells, 10 uM compound) | 3. Nuclear DNA Intensity (% control) ([2]; BV2 cells, 10 uM compound) | 4. Phagocytosis (% control) [3, 5] [% control] | 4. Phagocytosis (% control) [4, 6] [% control] | 1. Cell count (% control) ([1]; HMC3, compound 10 uM) | 2. Nuclear Area (% Control) ([1]; HMC3, compound 10 uM) | 3. Nuclear DNA Intensity (% control) ([1]; HMC3, compound 10 uM) | 1. Cell count (% control) ([2]; BV2, compound 10 uM) | 2. Nuclear Area (% Control) ([2]; BV2, compound 10 uM) | 3. Nuclear DNA Intensity (% control) ([2]; BV2, compound 10 uM) | 4. Phagocytosis (% control) [3, 7] [% control] | 4. Phagocytosis (% control) [4, 8] [% control]
1 | N#Cc1ccc(COC[C@H]2O[C@@H](n3c(NCc4ccc(Cl)c(Cl)c4)nc4c(N)ncnc43)[C@H](O)[C@@H]2O)cc1 [UNC10302853A] | 92.6 | 103.1 | 98.3 | 54.5 | 107.2 | 111.0 | 88.3 | 176.9 | – | – | – | – | – | – | – | –
2 | COc1cc([C@@H]2c3cc4c(cc3[C@H](O)[C@H]3COC(=O)[C@H]23)OCO4)cc(OC)c1OC [UNC10100984A] | 62.5 | 67.2 | 227.6 | 10.9 | 112.2 | 112.7 | 32.6 | 197.0 | – | – | – | – | – | – | – | –
3 | CC(=O)c1nc([C@@H](O)[C@H](O)[C@H](O)CO)c[nH]1 [UNC10303188A] | – | – | – | – | – | – | – | – | 133.0 | 98.0 | 87.6 | 136.1 | 102.5 | 102.7 | 91.3 | 181.8
4 | CC(C)(O)c1coc(S(=O)(=O)[N-]C(=O)Nc2c3c(cc4c2CCC4)CCC3)c1.[Na+] [UNC10302861A] | 119.4 | 98.5 | 105.7 | 111.0 | 101.8 | 106.4 | 105.6 | 115.8 | – | – | – | – | – | – | – | –
5 | Cc1cc(C)nc(NC(=S)N2CCN(c3ccc(C(F)(F)F)cn3)CC2)c1 [UNC10302906A] | 134.6 | 95.0 | 106.3 | 93.3 | 107.2 | 105.6 | 109.8 | 184.1 | – | – | – | – | – | – | – | –
6 | CC(C)CCC[C@@H](C)[C@H]1CC[C@H]2[C@@H]3CC[C@H]4C[C@H](N)CC[C@]4(C)[C@H]3CC[C@]12C [UNC10302970A] | 97.2 | 81.8 | 134.0 | 18.3 | 108.5 | 93.1 | 40.9 | 160.9 | – | – | – | – | – | – | – | –
7 | CCn1c(=O)/c(=C2\Sc3ccccc3N2C)s/c1=C\c1ccccn1 [UNC10302975A] | 120.1 | 99.3 | 95.9 | 107.1 | 104.2 | 108.3 | 87.9 | 118.8 | – | – | – | – | – | – | – | –
8 | CC(C)[C@H](O)C(=O)N[C@@H](C)C(=O)N[C@@H]1C(=O)N(C)CCc2ccccc21 [UNC10303095A] | 156.2 | 97.1 | 97.3 | 134.6 | 102.1 | 104.4 | 70.8 | 150.0 | – | – | – | – | – | – | – | –
9 | CO[C@H]1C[C@@H]2CC[C@@H](C)[C@@](O)(O2)C(=O)C(=O)N2CCCC[C@H]2C(=O)O[C@H]([C@H](C)C[C@@H]2CC[C@@H](O)[C@H](OC)C2)CC(=O)[C@H](C)/C=C(\C)[C@@H](O)[C@@H](OC)C(=O)[C@H](C)C[C@H](C)/C=C/C=C/C=C/1C [UNC10302852A] | 103.0 | 85.8 | 119.9 | 54.7 | 106.2 | 98.8 | 64.8 | 309.6 | – | – | – | – | – | – | – | –
10 | CN(C)CCCN1c2ccccc2Sc2ccc(Cl)cc21.Cl [UNC10100309D] | 119.8 | 102.8 | 91.9 | 82.7 | 103.4 | 99.3 | 88.5 | 128.7 | – | – | – | – | – | – | – | –
11 | O=C(Nc1ccc2[nH]nc(-c3ccncc3)c2c1)[C@@H]1CCN(CC(=O)N2CCN(c3ccc(-c4ncccn4)cc3)CC2)C1 [UNC10302854A] | 103.4 | 110.6 | 94.1 | 43.5 | 114.7 | 111.9 | 37.1 | 359.5 | – | – | – | – | – | – | – | –
12 | CN(C)CCCOc1c(Br)cc(/C=C/C(=O)NCCCOc2c(Br)cc(CCN(C)C)cc2Br)cc1Br [UNC10302702A] | – | – | – | – | – | – | – | – | 39.0 | 54.1 | 166.0 | 26.8 | 80.6 | 57.8 | 0.00724 | 0.0
13 | Cc1ccccc1C(=O)Nc1ccc(C(=O)N2CCCC(O)c3cc(Cl)ccc32)c(C)c1 (stereo not shown) [UNC10302860A] | – | – | – | – | – | – | – | – | 130.2 | 105.3 | 93.3 | 118.5 | 108.9 | 107.5 | 100.1 | 197.1
14 | COc1cc(N2CCC(N3CCN(C)CC3)CC2)ccc1Nc1ncc(Cl)c(Nc2ccccc2P(C)(C)=O)n1 [UNC10244797A] | – | – | – | – | – | – | – | – | 103.9 | 120.2 | 97.2 | 44.4 | 109.2 | 111.1 | 99.4 | 236.8
